Test results reported in patent US20030187261A1, “Purine derivatives, process for their preparation and use thereof” (priority 2000, published 2003).
Where two headings read alike, the source gives them in different places.

Legend:
CDC2 = target: T1, CDC2 (Homo sapiens, UniProt P06493); experiment: p34cdc2 (CDC2) kinase inhibition assay, histone H1 substrate; format: biochemical; conditions: Table 5, CDC2 activity in cell free system
T1 construct: made in house; host or cells: Sf9 insect cells, baculovirus co-infection
Procedure: Cyclin-dependent kinases (p34^cdc2, p33^cdk2, p33^cdk4 and cyclins (cyclin B, E and DI) are produced in Sf9 insect cells coinfected with appropriate baculoviral constructs. The cells are harvested 68-72 hrs post infection in lysis buffer for 30 min on ice and the soluble fraction is recovered by centrifugation at 14.000 g for 10 min. The protein extract is stored at −80° C.
To carry out experiments on kinetics under linear conditions, the final point test system for kinase activity measurement is used. The kinase is added to the reaction mixture in such a way that linear activity is obtained with respect to the concentration of enzyme and with respect to time.
Inhibition of p33^cdk4 kinase is determined with Rb-GST (0.2 mg/ml) as the substrate. Kinase activity is determined at 30° C. in kinase buffer.
Tested compounds are usually dissolved to 100 mM solutions in DMSO, the final concentration of DMSO in reaction mixture never exceeds 1%. The controls contain suitable dilutions of DMSO. After 10 min, the addition of 3×SDS sample buffer stops the incubations. […] The measurement of kinase activity is done using digital image analysis. The kinase activity is expressed as a percentage of maximum activity, the apparent inhibition constants are determined by graphic analysis. Kinase buffer: 50 mM Hepes pH 7.4, 10 mM MgCl21 5 mM EGTA, 10 mM 2-glycerolphosphate,

[1] = tested on: PHA-stimulated lymphocytes (PBMC); experiment: cell number of PHA-stimulated lymphocytes (PBMC), flow cytometry; format: cell-based, human; conditions: 96 hours, in the presence of IL-2
Procedure: Human peripheral blood mononuclear cells were isolated by density gradient (Ficoll-Hypaque) (LSM, ICN Biomedicals Inc.). PBMC were stimulated with 5 μg/ml phytohemaglutinin A (PHA) (Sigma) during 24-48 hours in IMDM supplemented with 10% FCS (IMDM/10% FCS) at 37° C. After washing off the PHA, PBMC were incubated with interleukin-2 (IL-2) (10 U/ml) (Genzyme).
(§1) Cells were plated at 10000 per well in 200 μl IMDM medium and incubated with 0-50 μM of the compounds of the invention (Table 5), by addition of the drugs directly to the culture medium and incubated at 37° C. for 96 hours. Absolute cell number was determined by addition of a known concentration of Fluoresbrite microspheres (FITC) (Polysciences, Inc.). The absolute number of cells per well was calculated as: {(total number of beads added per well)/(number of beads measured)}×(number of measured cells in the gate of interest). All analyses were performed with a FACScan (BD), using CELLQuest software (Becton Dickinson).
The novel compounds were tested for cytotoxicity on PHA-stimulated lymphocytes (PBMC), as one of the normal counterparts of the cell lines. Cells were grown for 96 hours in the presence of IL-2 and different concentrations of the novel compounds and cell number was counted on the flow cytometer.

[2] = tested on: T-lymphocyte leukemia Molt3 cell line; experiment: cell growth of Molt3 cell line, flow cytometric cell count; format: cell-based, human; conditions: 96 hours of culture
Procedure: (§2) Cell lines: Human leukemic cell lines were obtained from the American Type Culture Collection (ATCC, Rockville, Md., USA). They were cultured in Iscove's Modified Dulbecco's Medium (IMDM) supplemented with 10% heat inactivated fetal calf serum (FCS), 200 U/ml penicillin, 200 μg/ml streptomycin and 1 μg/ml amphotericin B. Cells were cultured in a 5% CO2-95% air fully humidified incubator. For effects on clonogenic output, 1000 cells/well were plated in duplicate in methylcellulose (0.9%), supplemented with 20% FCS and cultured for 14 days.
as §1
The response of the myeloid leukemia KG1 and T-lymphocyte leukemia Molt3 cell lines to the cytostatic effect of the novel compounds was determined using the above-mentioned standardized bead suspension that was used to determine the absolute cell number by flow cytometric (FCM) measurement. Cells were grown in the presence of increasing concentrations of the compounds of the invention.

[3] = tested on: CD34+ hematopoietic progenitors (HPC) from adult bone marrow; experiment: myeloid colony-forming unit (CFU) assay; format: cell-based, human; conditions: for IC50: 14 days, methylcellulose, total colony output
[4] = tested on: adult bone marrow CD34+CD38- cells; experiment: pre-CFU assay; format: cell-based, human; conditions: for IC50: 14 day liquid culture, total clonogenic output after secondary methylcellulose culture
Description: […]. Cells with low-to-medium forward and low side scatter, highly positive green (CD34) fluorescence, and an orange (CD38) fluorescence signal lower than the mean fluorescence of cells labeled with an irrelevant isotype-matched control antibody+2 standard deviations were retained as CD34^+CD38^− cells and used in pre-CFU assays.
Pre-CFU assays were initiated by performing liquid cultures of CD34^+CD38^− cells in duplicate in 96-well flat-bottomed plates in IMDM/10% FCS, 1% bovine serum albumin (BSA), 100 U/ml IL-1, 200 U/ml IL-6, 30 U/ml IL-3 and 100 ng/ml stem cell factor (SCF). Pre-CFU cultures were initiated with 500 CD34^+CD38^− cells/well (200 μl). After 14 days of culture at 37° C. in 7.5% O2 and 5% CO2 in a fully humidified incubator, the number of cells in each well was counted. Subsequently, the cells were harvested, washed three times in IMDM/10% FCS, and plated in duplicate at 500 cells/well (1000 μl) in secondary methylcellulose CFU cultures as described for CFU assays.
Pre-CFU were cultured starting from adult bone marrow CD34^+CD38^− cells, that had been isolated using the FCM cell sorter. Novel compounds were added at different concentrations to the primary 14 day liquid culture. IC50 was calculated from dose-response curves from total clonogenic output after secondary methylcellulose culture (Table 5).

KG1 = experiment: clonogenic output of KG1 in methylcellulose; format: cell-based, human; conditions: 25 μM, 14 days
Procedure: as §2
Clonogenic output of KG1 was tested in methylcellulose with 25 μM of some of the novel compounds.

KG1 cells = experiment: apoptosis and cell cycle in KG1 cells (fluorescence microscopy, TUNEL); format: cell-based, human
Procedure: Nuclear morphology of the cells was analysed with the fluorochromes Hoechst 33342 (λEx max 346 nm; λEm max 460 nm) (Sigma) prepared in phosphate-buffered saline (PBS at 0.1 mg/ml, added to the culture medium at a final concentration of 2 μg/ml and ethidium bromide (EB) (λEx max 540 nm; λEm max 625 nm) (Sigma) prepared in PBS at 100 μg/ml and added to the culture medium at a final concentration of 2 μg/ml (Lizard, 1995). Hundred cells were counted for each sample and percentage of apoptosis was determined.
Control and novel compound-treated cell cultures were washed with PBS and fixed in […] (pH 7.4) for 15 minutes on ice. After washing in PBS, cells were permeabilized in 70% cold (−20° C.) ethanol and transferred to 4° C. for at least 1 hour. After rehydratation in PBS, cells were labeled with 50 μl/well TUNEL reaction mixture (Boehringer Mannheim). Cells were incubated in this solution at 37° C. for 40 minutes, washed in PBS and resuspended in 500 μl PBS containing 5 μg/ml EB and 0.1% RNAse. After 30 minutes of incubation at 4° C., green (FITC-dUTP) and red (EB-DNA) fluorescence of individual cells was measured on a FACscan flow cytometer (Gorczyca, 1993). Negative control (fixed and permeabilized cells incubated with 50 μl label solution per well without terminal transferase, instead of TUNEL reaction mixture) and positive control (fixed and permeabilized cells incubated with DNase I (100 μg/ml) that induces DNA strand breaks) were included in each experimental set-up.
Flow cytometric detection of apoptosis combined with DNA staining can identify apoptotic cells and simultaneously evaluate their position in the cell cycle. This technique was used to provide infomation about the possible cell cycle specific initiation of apoptosis by the tested compounds. If more than 2% of apoptotic cells were detected by the TUNEL method and the absolute number of acquired apoptotic events exceeded 2000, DNA content was simultaneously measured. Within the apoptotic population, analysis and calculation of the different cell cycle phases was carried out by an iterative curve fitting procedure (ModFit LT cell cycle analysis sofware from Verity software house, INC).
Viable, apoptotic, necrotic (=primary necrosis, not following apoptosis) and secondarily necrotic cells (=late apoptotis, evolving to necrosis) were scored differentially after 6, 12, 24, 48 and 72 hours of exposure to novel compounds. For the three products a different apoptosis-inducing pattern could be observed. Apoptosis induction occurs fast after incubation with P23 and P28 but slower after incubation with P27.
Flow cytometric detection of apoptosis and cell cycle analysis: The induction of apoptotic death of KG1 cells by the novel compounds was confirmed using the TUNEL reaction technique (FIG. 5). […] Incubation of KG1 cell line with P27 results in detectable apoptosis after 24 hours. Percentage of apoptotic cells in G0-G1 increases with time, while the number of apoptotic cells in S+G2/M phases decreases. […] After 6 and 12 hours of incubation the apoptotic population seems mainly to evolve from S phase.

[5] = tested on: myeloid leukemia KG1 cell line; experiment: cell growth of KG1 cell line, flow cytometric cell count; conditions: for IC50: read-out: KGI IC50
MPF activity = experiment: M-phase promoting factor inhibition in metaphase-arrested Xenopus egg extracts; format: biochemical; conditions: 1.5 h after addition
Procedure: (§3) Metaphase-arrested Xenopus egg extracts were prepared as described previously by Blow “J. Cell Biol.” 1993, 122:993 and stored in liquid nitrogen. Demembranated Xenopus sperm nuclei were prepared as described by Blow & Laskey “Cell” 1986;47:577.
(§4) At concentrations of cdk inhibitors (see Table 6) ranging from 0.1-2 μM, chromosomes remained highly condensed and no nuclear envelope was visible. At 4-6 μM and higher concentrations, interphase nuclei appeared with partially decondensed chromatin and an intact nuclear envelope. […] For the inhibition effect to become detectable, the first 15-min incubation of the interphase extract is probably sufficient.

DNA synthesis = DNA synthesis in Xenopus egg extracts ([α-32P]dATP incorporation); format: biochemical; conditions: [α-32P]dATP incorporation after 3 h; read-out: Inhibition of DNA synthesis IC50
Procedure: as §3, §4

T1 sequence (P06493 whole entry, species assumed): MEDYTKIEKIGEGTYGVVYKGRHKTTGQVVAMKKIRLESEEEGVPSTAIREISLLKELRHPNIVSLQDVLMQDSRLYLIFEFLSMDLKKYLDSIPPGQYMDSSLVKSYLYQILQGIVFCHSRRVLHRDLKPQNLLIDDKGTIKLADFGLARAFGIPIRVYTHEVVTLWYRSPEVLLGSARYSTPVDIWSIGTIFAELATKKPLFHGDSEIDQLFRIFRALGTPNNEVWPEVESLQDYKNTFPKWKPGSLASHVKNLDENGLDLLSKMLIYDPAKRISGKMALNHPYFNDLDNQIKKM
T1 sequence (P14635 whole entry partner, species assumed): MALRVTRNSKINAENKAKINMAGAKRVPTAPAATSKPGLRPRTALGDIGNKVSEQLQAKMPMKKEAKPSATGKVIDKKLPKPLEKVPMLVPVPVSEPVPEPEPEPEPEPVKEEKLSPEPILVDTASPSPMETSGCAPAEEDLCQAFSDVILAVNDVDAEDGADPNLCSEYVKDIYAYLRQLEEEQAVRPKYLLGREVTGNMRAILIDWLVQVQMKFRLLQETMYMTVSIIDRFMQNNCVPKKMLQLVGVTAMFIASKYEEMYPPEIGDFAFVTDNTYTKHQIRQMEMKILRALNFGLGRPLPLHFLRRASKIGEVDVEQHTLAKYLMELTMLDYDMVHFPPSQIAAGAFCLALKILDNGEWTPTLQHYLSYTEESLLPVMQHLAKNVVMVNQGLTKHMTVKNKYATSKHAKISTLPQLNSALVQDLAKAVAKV

Row | IC50 (CDC2) [µM] | IC50 ([2]; Homo sapiens, MOLT-3) [µM] | IC50 ([3]; Homo sapiens, 336 h) [µM] | IC50 ([4]; Homo sapiens, 336 h) [µM] | IC50 ([5]; Homo sapiens, KG-1, 96 h) [µM] | IC50 (MPF activity) [µM] | IC50 (DNA synthesis) [µM] | Structure (SMILES) | output of the different types of myeloid colonies (CFU-E, CFU-G and CFU-M) ([3]; scored differentially) | Colony output vs. control cultures without novel compound (KG1) [%] | also measured
1 | > 100 | 14 ± 1.5 | > 50 | > 25 | 7 ± 2 |  |  | CC(C)n1cnc2c(NC(CO)c3ccccc3)nc(NCCCO)nc21 (racemic) [P27, 2-(3-hydroxypropylamino)-6-[(R,S)-(1-phenyl-2-hydroxyethyl)amino]-9-isopropylpurine] | significantly lower colony output | 8 | CC50 ([1]; Homo sapiens, Lymphocyte, read-out: Lymphocytes IC50): 8 ± 0.5 µM; CFU-M colony output ([3]; scored differentially): not significantly decreased; time of incubation after which apoptosis was detected (TUNEL) (KG1 cells; KG1): 24 h; speed of apoptosis induction (microscopic examination) (KG1 cells; KG1, 6-72 hours of exposure, FIG. 4): slower; apoptotic cells in G0-G1 phase versus control cells (KG1 cells; KG1, TUNEL with EB, FIG. 6): significant after 72 hours; cell number after 6 hours of exposure, wash and 7 days in drug-free medium ([5]; KG1, compared to control without novel compounds): (some) recovery of cell number
2 |  | ≥ 51 | > 50 | > 25 | ≥ 51 |  |  | CC(C)=CCNc1nc(NCCO)nc2c1ncn2C [P3, 2-(2-hydroxyethylamino)-6-(2-isopentenylamino)-9-methylpurine] | no significant difference | 47 | 
3 |  |  |  |  |  | 1.5 | 1.4 | CC(C)n1cnc2c(NC(CO)c3ccccc3)nc(NCCCO)nc21 (racemic) |  |  | 
4 |  |  |  |  |  | 3.6 | 4.2 | CC(C)n1cnc2c(NCc3ccc(O)c(O)c3)nc(NCCCO)nc21 |  |  | 
5 |  |  |  |  |  | 2.8 | 3.5 | CC[C@H](CCO)Nc1nc(NCc2ccc(O)c(O)c2)c2ncn(C(C)C)c2n1 |  |  | 
6 | > 200 |  |  |  |  |  |  | CSc1nc(NC(C)c2ccc(O)c(O)c2)c2ncn(C(C)C)c2n1 (stereo not shown) [P16] | no significant difference | 16 | IC50 [1]: 26.5 ± 2.8 µM; IC50 [2]: 37 ± 7.9 µM; IC50 [3]: > 50 µM; activity on pre-CFU compared with CFU [4]: more active on pre-CFU than on CFU; IC50 [4]: 16 µM; IC50 ([5]; 96 hours of culture): 23 ± 1.2 µM
